Non-standard residues stand in square brackets, D forms with d. No end group written: not given here. hCys = N[C@@H](CCS)C(=O)O; Orn = NCCC[C@H](N)C(=O)O
Columns and labels:
Bovine myoblasts = experiment: Bovine myoblast proliferation-promoting effect; format: cell-based, Japanese Black cattle; details: 0.03 to 10 nmol/L complex versus 30 ng/mL bFGF, 4 days; FIG. 5
Experimental: The bovine cells (myoblasts) proliferation-promoting effect of the cyclic peptide complex was evaluated.
Bovine myoblasts were separated from bovine muscle tissue by the following method. First, muscle tissue of Japanese Black cattle was finely chopped in HBSS(−) (phenol red-free) (FUJIFILM Wako Pure Chemical Corporation, 085-09355), and then pronase from Streptomyces griseus (Sigma-Aldrich, 10165921001) was added thereto to a final concentration of 1 mg/mL, and the mixture was allowed to stand at 37° C. for 1 hour. After allowing to stand, HBSS containing 10% FBS was added thereto, and the cells were acquired by centrifugation. The acquired cells were suspended in D-MEM (high glucose) (containing L-glutamine and phenol red) (FUJIFILM Wako Pure Chemical Corporation, 044-29765) containing 10% final concentration of bovine serum and 30 ng/mL bFGF. Suspended cells were cultured in a culture flask coated with an iMatrix-511 solution (FUJIFILM Wako Pure Chemical Corporation, 381-07363) at 0.55 μg/cm^2. […]
The evaluation of the proliferation-promoting effect on bovine myoblasts was performed by the following method. […] The number of viable cells was calculated from the imaging data and normalized by setting the number of viable cells in the well to which 30 ng/mL bFGF was added to 100, and setting the number of viable cells in the negative control well to 0.

[1] = tested on: hMSC-Human Mesenchymal Stem Cells; experiment: Mesenchymal stem cell (MSC) proliferation-promoting effect; format: cell-based; details: 0.001 to 3 nmol/L, compared with bFGF at the same molar ratio; FIG. 3
Experimental: The mesenchymal stem cell (MSC) proliferation-promoting effect of the cyclic peptide complex was evaluated.
The MSC was activated and subcultured according to the recommended protocol of FUJIFILM Irvine Scientific, Inc. using hMSC-Human Mesenchymal Stem Cells (Lonza, PT-2501) and PRIME-XV MSC Expansion XSFM (FUJIFILM Irvine Scientific, Inc., 91149) as a culture medium. MSCs that had been subcultured 1 to 4 times were used for the evaluation.
The evaluation of the proliferation-promoting effect of MSC was performed by the following method. First, a culture medium (hereinafter, referred to as a custom culture medium) in which bFGF was removed from PRIME-XV MSC Expansion XSFM (FUJIFILM Irvine Scientific, Inc., 91149) was prepared. Next, Prime-XV Human Fibronectin (FUJIFILM Irvine Scientific, Inc., 31002) was dissolved in PBS (Fujifilm Wako Pure Chemical Corporation, 164-23551), 2 μg/cm^2 of the solution was added to a 96-well plate used for evaluation, and the 96-well plate was allowed to stand at room temperature for 3 hours to coat the 96-well plate with fibronectin. […] The number of viable cells was calculated from the imaging data and normalized by setting the number of viable cells in the well to which 1 nmol/L bFGF was added to 100, and setting the number of viable cells in the negative control well to 0.

[2] = tested on: hMSC-Human Mesenchymal Stem Cells; experiment: Effect of maintaining MSC undifferentiated potency (gene expression); format: cell-based; details: cyclic peptide complex 10 nmol/L, bFGF 1 nmol/L, normalized to 1 nmol/L bFGF = 1, FIG. 4
Experimental: The effect of maintaining mesenchymal stem cell (MSC) undifferentiated potency of the cyclic peptide complex was evaluated.
MSC was prepared in the same manner as in Example 7.
The evaluation of the effect of maintaining the MSC undifferentiated potency was performed by the following method. First, a culture medium (hereinafter, referred to as a custom culture medium) in which bFGF was removed from PRIME-XV MSC Expansion XSFM (FUJIFILM Irvine Scientific, Inc., 91149) was prepared. Next, Prime-XV Human Fibronectin (FUJIFILM Irvine Scientific, Inc., 31002) was dissolved in PBS (Fujifilm Wako Pure Chemical Corporation, 164-23551), 2 μg/cm^2 of the solution was added to a 12-well plate used for proliferation, and the 12-well plate was allowed to stand at room temperature for 3 hours to coat the 12-well plate with fibronectin. Thereafter, the MSCs subjected to the subculture were peeled using Tryple Express (Thermo, 12604-013), washed once with a custom culture medium, suspended in a custom culture medium in which a cyclic peptide complex or bFGF (R&D Systems, 3718-GMP) was diluted to final concentrations of 10 nmol/L and 1 nmol/L, and seeded on a 12-well plate coated with fibronectin. In this case, conditions in which the cyclic peptide complex and bFGF were not added as a negative control were prepared. After culturing at 37° C. (5% CO2) for 2 nights, the culture medium was replaced by removing the supernatant of the culture medium and adding the same amount of a culture medium prepared to have the same composition as the removed culture medium. After further culturing at 37° C. (5% CO2) for 2 nights, RNA was extracted using an RNeasy Plus Mini Kit (Qiagen, 74136) according to the manufacturer's protocol. […] The expression level of each gene was normalized by setting the expression level of the well to which 1 nmol/L bFGF was added to 1.

Question: For “F-(Orn(acetyl))-VYTFDAHAHSLDAALN-(Hcy)-I (F[Orn]VYTFDAHAHSLDAALN[hCys]IF[Orn]VYTFDAHAHSLDAALN[hCys]I-NH2; thioether (positions not given here); not fully specified (residues 2, 22, bridges); also: dimer of two 20-mers crosslinked via Bis-NHS-PEG13 between side-chain amino groups, C-terminal amide on each monomer) [SEQ ID NO: 346, cyclic peptide complex; C-terminal amidation, amide crosslinking between side chain amino groups of N via Bis-NHS-PEG13]”, which “proliferation-promoting effect on bovine myoblasts” value (Bovine myoblasts) is on record?
Answer: The value was “comparable to or higher than that of bFGF”.

Question: What about the MSC proliferation-promoting effect [1] of the same substance?
Answer: The MSC proliferation-promoting effect was “same degree of MSC proliferation-promoting effect as bFGF”.

Question: What about the “expression level of Sox2” value [2] of the same substance?
Answer: The value was “same degree of a gene expression level as bFGF”.

Reference: patent US20260008817A1, “CYCLIC PEPTIDE OR SALT THEREOF, AND USES THEREOF” (FUJIFILM Corporation, priority 2023, published 2026)
